From EP4722219A1 (Gan & Lee Pharmaceuticals Co., Ltd., priority 2023, dated 2024) come the findings set out here.

What all share (assay type): cell-based
For one assay, the target named is T1, AR protein (Homo sapiens, UniProt P10275).
T1 construct: host or cells: VCaP
T1 sequence (P10275 1-920): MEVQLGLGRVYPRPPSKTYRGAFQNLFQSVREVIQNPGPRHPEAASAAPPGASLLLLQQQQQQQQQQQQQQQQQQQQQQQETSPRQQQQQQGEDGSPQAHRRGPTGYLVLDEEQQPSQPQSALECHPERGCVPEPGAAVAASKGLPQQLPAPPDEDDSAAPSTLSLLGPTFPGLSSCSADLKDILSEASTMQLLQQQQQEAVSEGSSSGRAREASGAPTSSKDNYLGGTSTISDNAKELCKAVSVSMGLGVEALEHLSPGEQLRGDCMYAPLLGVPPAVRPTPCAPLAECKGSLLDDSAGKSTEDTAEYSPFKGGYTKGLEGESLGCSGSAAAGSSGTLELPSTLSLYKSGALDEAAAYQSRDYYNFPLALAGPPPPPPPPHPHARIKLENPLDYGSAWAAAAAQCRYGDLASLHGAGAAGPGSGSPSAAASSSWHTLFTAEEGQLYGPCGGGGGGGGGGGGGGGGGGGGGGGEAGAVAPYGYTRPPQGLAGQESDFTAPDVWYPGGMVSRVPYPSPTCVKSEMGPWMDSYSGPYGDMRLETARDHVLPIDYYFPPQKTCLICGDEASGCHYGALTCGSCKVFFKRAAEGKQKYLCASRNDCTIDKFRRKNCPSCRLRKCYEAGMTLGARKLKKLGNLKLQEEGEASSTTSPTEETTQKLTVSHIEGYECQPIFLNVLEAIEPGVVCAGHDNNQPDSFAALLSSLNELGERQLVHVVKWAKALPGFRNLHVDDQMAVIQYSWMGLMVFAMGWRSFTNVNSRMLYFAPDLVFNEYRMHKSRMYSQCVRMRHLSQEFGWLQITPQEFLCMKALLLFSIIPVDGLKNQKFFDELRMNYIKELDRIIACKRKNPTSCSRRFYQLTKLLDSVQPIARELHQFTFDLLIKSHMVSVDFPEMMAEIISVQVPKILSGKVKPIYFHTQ
Briefly: AR protein degradation in VCaP cells (Western blot). Conditions: 8h. In short, it runs like this:
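AR-positive VCaP human prostate cancer cells grown in DMEM with 10% FBS were plated in six-well plates at 3×10^5 cells/well and incubated overnight. Compounds were then added at 1 µL/well alongside a solvent control and incubated for 8h. Lysates in RIPA buffer with protease inhibitor were quantified by BCA and run by SDS-PAGE. AR was detected by Western blot, and degradation was calculated from band grayscale normalized to GAPDH.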

The subject of a further assay is LNCaP cells. Briefly: Inhibition of LNCaP cell proliferation (WST-8). To be noted: LNCaP FGC cells, 96 hours. In short, it runs like this: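 WST-8 absorbance at 450 nm measured proliferation after 96 h of compound exposure at 37 °C, 5% CO2. Dosing used nine 5-fold dilutions from a 10 µM top final concentration, applied to cells cultured overnight beforehand.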
For orientation: Tetrazolium assays rely on reduction of a dye to a coloured formazan, in cell work by metabolically active cells.

For another assay, the system named is VCaP cells. Briefly: Inhibition of VCaP cell proliferation (WST-8). Conditions: 168 hours. A digest of the protocol: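 Proliferation was read on day 9 as WST-8 absorbance at 450 nm after VCaP cells (15,000/well, DMEM/10% FBS, 37°C) were exposed from day 2 to compound at 9 points, 5-fold serial dilution, top final concentration 10 µM.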

With `COc1cc(O[C@H]2C(C)(C)[C@H](NC(=O)c3ccc(N4CCC(C)(CN5CCC6(CCc7cc(C(=O)N[C@H]8CCC(=O)NC8=O)c(F)cc7O6)CC5)CC4)nn3)C2(C)C)ccc1C#N` [A-P-48, 1'-((1-(6-(((1R,3R)-3-(4-cyano-3-methoxyphenoxy)-2,2,4,4-tetramethylcyclobutyl)carbamoyl)pyridazin-3-yl)-4-methylpiperidin-4-yl)methyl)-N-((S)-2,6-dioxopiperidin-3-yl)-7-fluorospiro[chroman-2,4'-piperidin]-6-carboxamide], the “Degradation rate of AR protein in VCaP cells” value (shortened to “Degradation rate of AR protein”) at AR protein (0.5 nM) was -23%; on AR protein (5 nM) it was -1%. Moreover, the figures for the IC50 with LNCaP cells (Homo sapiens) and in the assay with VCaP cells (Homo sapiens) were 0.86 µM and 0.33 µM, respectively.

In the case of `COc1cc(O[C@H]2C(C)(C)[C@H](NC(=O)c3ccc(N4CCC(C)(CN5CCC6(CCc7cc(C(=O)N[C@H]8CCC(=O)NC8=O)c(F)cc7O6)CC5)CC4)nc3)C2(C)C)ccc1C#N` [A-P-49, 1'-((1-(5-(((1R,3R)-3-(4-cyano-3-methoxyphenoxy)-2,2,4,4-tetramethylcyclobutyl)carbamoyl)pyridin-2-yl)-4-methylpiperidin-4-yl)methyl)-N-((S)-2,6-dioxopiperidin-3-yl)-7-fluorospiro[chroman-2,4'-piperidin]-6-carboxamide], the results for the “Degradation rate of AR protein” value at AR protein (0.5 nM) and on AR protein (5 nM) were -15% and 45%, respectively. Besides, the IC50 in the assay with LNCaP cells (Homo sapiens) was 0.6 µM; in the assay on VCaP cells (Homo sapiens), 0.041 µM.

For `CC1(C)[C@H](NC(=O)c2ccc(N3CCC(CN4CCC5(CCc6cc(C(=O)N[C@H]7CCC(=O)NC7=O)c(F)cc6O5)CC4)CC3)nc2)C(C)(C)[C@H]1Oc1ccc(C#N)c(Cl)c1` [A-P-50, 1'-((1-(5-(((1R,3R)-3-(3-chloro-4-cyanophenoxy)-2,2,4,4-tetramethylcyclobutyl)carbamoyl)pyridin-2-yl)piperidin-4-yl)methyl)-N-((S)-2,6-dioxopiperidin-3-yl)-7-fluorospiro[chroman-2,4'-piperidin]-6-carboxamide], the “Degradation rate of AR protein” value at AR protein (0.5 nM) came to 84%; at AR protein (5 nM), 87%. Also, the figures for the IC50 in the assay with LNCaP cells (Homo sapiens) and with VCaP cells (Homo sapiens) were 0.18 µM and 0.051 µM, respectively.

On to `COc1cc(O[C@H]2C(C)(C)[C@H](NC(=O)c3ccc(N4CCC(F)(CN5CCC6(CCc7cc(C(=O)N[C@H]8CCC(=O)NC8=O)c(F)cc7O6)CC5)CC4)cc3)C2(C)C)ccc1C#N` [A-P-52, 1'-((1-(4-(((1r,3r)-3-(4-cyano-3-methoxyphenoxy)-2,2,4,4-tetramethylcyclobutyl)carbamoyl)phenyl)-4-fluoropiperidin-4-yl)methyl)-N-((S)-2,6-dioxopiperidin-3-yl)-7-fluorospiro[chroman-2,4'-piperidin]-6-carboxamide], for which the “Degradation rate of AR protein” value is -1% on AR protein (0.5 nM) and 14% at AR protein (5 nM). Besides, the figures for the IC50 in the assay on LNCaP cells (Homo sapiens) and in the assay with VCaP cells (Homo sapiens) were 0.2 µM and 4.24 µM, respectively.

With `COc1cc(O[C@H]2C(C)(C)[C@H](NC(=O)c3ccc(N4CCC(CN5CCN6c7ccc(C(=O)N[C@H]8CCC(=O)NC8=O)cc7OC[C@@H]6C5)CC4)cc3)C2(C)C)ccc1C#N` [A-P-67], the “Degradation rate of AR protein” value on AR protein (0.5 nM) came out at 20%; at AR protein (5 nM) it was 70%. The IC50 with LNCaP cells (Homo sapiens) was found to be 7.22 µM; with VCaP cells (Homo sapiens), 0.17 µM.

For the compound `C[C@H]1CC2(CCN(c3ccc(C(=O)N4CCC(CN5CCN6c7ccc(C(=O)N[C@H]8CCC(=O)NC8=O)cc7OC[C@H]6C5)CC4)cc3)CC2)CN1c1ccc(C#N)c(Cl)c1` [A-P-68], the “Degradation rate of AR protein” value on AR protein (0.5 nM) stood at 5%; on AR protein (5 nM), 33%. Further, the IC50 came to 0.97 µM with LNCaP cells (Homo sapiens) and 0.0045 µM in the assay on VCaP cells (Homo sapiens).

`C[C@H]1CC2(CCN(c3ccc(C(=O)N4CCC(CN5CCN6c7ccc(C(=O)N[C@H]8CCC(=O)NC8=O)cc7OC[C@@H]6C5)CC4)cc3)CC2)CN1c1ccc(C#N)c(Cl)c1` [A-P-69]: the “Degradation rate of AR protein” value at AR protein (0.5 nM) is -9%; at AR protein (5 nM), 18%. Besides, the IC50 in the assay on LNCaP cells (Homo sapiens) was determined as 0.28 µM; in the assay on VCaP cells (Homo sapiens), 1.32 µM.

`COc1cc(O[C@H]2C(C)(C)[C@H](NC(=O)c3ccc(N4CCC(CN5CCC6(CC5)COc5c6ccc(C(=O)N[C@H]6CCC(=O)NC6=O)c5F)CC4)cc3)C2(C)C)ccc1C#N` [A-P-83]: the results for the “Degradation rate of AR protein” value on AR protein (0.5 nM) and on AR protein (5 nM) were 36% and 66%, respectively. The IC50 in the assay with LNCaP cells (Homo sapiens) was determined as 0.71 µM; in the assay on VCaP cells (Homo sapiens), 2.58 µM.

As for `COc1cc(O[C@H]2C(C)(C)[C@H](NC(=O)c3ccc(N4CCC(F)(CN5CCC6(CC5)COc5c6ccc(C(=O)N[C@H]6CCC(=O)NC6=O)c5F)CC4)cc3)C2(C)C)ccc1C#N` [A-P-84], the “Degradation rate of AR protein” value on AR protein (0.5 nM) is given as -14%; at AR protein (5 nM), -17%. The IC50 stood at 0.11 µM in the assay with LNCaP cells (Homo sapiens) and 0.49 µM with VCaP cells (Homo sapiens).

Consider `COc1cc(O[C@H]2C(C)(C)[C@H](NC(=O)c3ccc(N4CCC(C)(CN5CCC6(CC5)COc5c6ccc(C(=O)N[C@H]6CCC(=O)NC6=O)c5F)CC4)cc3)C2(C)C)ccc1C#N` [A-P-85, 1'-((1-(4-(((1r,3r)-3-(4-cyano-3-methoxyphenoxy)-2,2,4,4-tetramethylcyclobutyl)carbamoyl)phenyl)-4-methylpiperidin-4-yl)methyl)-N-((S)-2,6-dioxopiperidin-3-yl)-7-fluoro-2H-spiro[benzofuran-3,4'-piperidin]-6-carboxamide], for which the entries for the “Degradation rate of AR protein” value at AR protein (0.5 nM) and on AR protein (5 nM) were 18% and 34%, respectively. For the same compound, the IC50 in the assay with LNCaP cells (Homo sapiens) was found to be 0.29 µM; with VCaP cells (Homo sapiens) it was 0.54 µM.

`COc1cc(O[C@H]2C(C)(C)[C@H](NC(=O)c3ccc(N4CCC(CN5CCC6(CC5)COc5c6ccc(C(=O)N[C@H]6CCC(=O)NC6=O)c5F)(OC)CC4)cc3)C2(C)C)ccc1C#N` [A-P-86, 1'-((1-(4-(((1r,3r)-3-(4-cyano-3-methoxyphenoxy)-2,2,4,4-tetramethylcyclobutyl)carbamoyl)phenyl)-4-methoxypiperidin-4-yl)methyl)-N-((S)-2,6-dioxopiperidin-3-yl)-7-fluoro-2H-spiro[benzofuran-3,4'-piperidin]-6-carboxamide]: the “Degradation rate of AR protein” value at AR protein (0.5 nM) was -30%; on AR protein (5 nM), 1%. Moreover, the IC50 amounted to 0.39 µM in the assay with LNCaP cells (Homo sapiens) and 1.79 µM with VCaP cells (Homo sapiens).

For `COc1cc(O[C@H]2C(C)(C)[C@H](NC(=O)c3ccc(N4CCC(CN5CCN6c7ccc(N[C@H]8CCC(=O)NC8=O)cc7OC[C@@H]6C5)CC4)cc3)C2(C)C)ccc1C#N` [A-P-100], the figures for the “Degradation rate of AR protein” value at AR protein (0.5 nM) and on AR protein (5 nM) were -20% and 21%, respectively. Besides, the results for the IC50 with LNCaP cells (Homo sapiens) and in the assay with VCaP cells (Homo sapiens) were 0.38 µM and 4.7 µM, respectively.

As for `COc1cc(O[C@H]2C(C)(C)[C@H](NC(=O)c3ccc(N4CCC(CN5CCN(c6ccc(C(=O)N[C@H]7CCC(=O)NC7=O)c(F)c6)CC5)CC4)cc3)C2(C)C)ccc1C#N` [ARV-766, reference compound], the entries for the “Degradation rate of AR protein” value on AR protein (0.5 nM) and on AR protein (5 nM) were 9% and 80%, respectively. For the same compound, the concentration for half-maximal inhibition (IC50) was found to be 1.07 µM with LNCaP cells and 0.779 µM in the assay on VCaP cells.

With “(R)-3-((1-(4-(((S)-2-(3-chloro-4-cyanophenyl)-3-methyl-2,8-diazaspiro[4.5]decan-8-yl)phenyl)piperidin-4-yl)methyl)-N-(((S)-2,6-dioxopiperidin-3-yl)-1,2,3,4,4a,5-hexahydrobenzo[b]pyrazi no[1,2-d][1,4]oxazine-8-carboxamide [A-P-58]”, the “Degradation rate of AR protein” value at AR protein (0.5 nM) is listed as 12%; at AR protein (5 nM), 37%. Moreover, the 50% inhibitory concentration (IC50) came out at 0.51 µM in the assay with LNCaP cells and 1.83 µM in the assay with VCaP cells.

For “(S)-3-((1-(4-(((S)-2-(3-chloro-4-cyanophenyl)-3-methyl-2,8-diazaspiro[4.5]decan-8-yl)phenyl)piperidin-4-yl)methyl)-N-(((S)-2,6-dioxopiperidin-3-yl)-1,2,3,4,4a,5-hexahydrobenzo[b]pyrazi no[1,2-d][1,4]oxazine-8-carboxamide [A-P-57]”, the figures for the “Degradation rate of AR protein” value on AR protein (0.5 nM) and on AR protein (5 nM) were -31% and -21%, respectively. Also, the IC50 in the assay with LNCaP cells turned out to be 0.67 µM; in the assay with VCaP cells it was 3.02 µM.

The term IC50 denotes the midpoint of a concentration-inhibition curve. Read a high IC50 as weaker potency.
